Assay results from patent US6737039B2, “Methods for detecting lesions in dense breast tissue using LHRH antagonists” (Praecis Pharmaceutics, Inc., priority 1998, dated 2004).
Non-standard residues stand in square brackets, D forms with d. Residues, ends and D or L forms follow the SMILES beside them. dPhe(4-Cl) = N[C@H](Cc1ccc(Cl)cc1)C(=O)O; d2Nal = N[C@H](Cc1ccc2ccccc2c1)C(=O)O; Lys(iPr) = CC(C)NCCCC[C@H](N)C(=O)O; NMeY = CN[C@@H](Cc1ccc(O)cc1)C(=O)O; d3Pal = N[C@H](Cc1cccnc1)C(=O)O

Tests used:
[1] = test system: plasma testosterone levels; assay: single dose in male rats, plasma testosterone; format: in vivo
Experimental: (§1) Moreover, upon administration, PPI-149 rapidly reduces sex hormone levels to castrate levels. […] Testosterone levels returned to normal by 24 hours after the 300 μg/kg dose, but not until 72 hours after the 1000 μg/kg dose.

testosterone levels = assay: continuous subcutaneous infusion via osmotic pump, testosterone; format: in vivo, rats
Experimental: as §1

[2] = test system: plasma testosterone levels; assay: eight intravenous doses every three hours, plasma testosterone; format: in vivo, rats
Experimental: as §1

Description for histamine release: Histamine-releasing activity of an LHRH antagonist can be assayed by the method described in U.S. Pat. No. 4,851,385 to Roeske.

CC(=O)N[C@H](Cc1ccc2ccccc2c1)C(=O)N[C@H](Cc1ccc(Cl)cc1)C(=O)N[C@H](Cc1cccnc1)C(=O)N[C@@H](CO)C(=O)N(C)[C@@H](Cc1ccc(O)cc1)C(=O)N[C@H](CC(N)=O)C(=O)N[C@@H](CC(C)C)C(=O)N[C@@H](CCCCNC(C)C)C(=O)N1CCC[C@H]1C(=O)N[C@H](C)C(N)=O [PPI-149, Ac-D-Nal^1,4-Cl-D-Phe^2, D-Pal^3, N—Me-Tyr^5, D-Asn^6, Lys(iPr)^8, D-Ala^10-LHRH] (Ac-[d2Nal][dPhe(4-Cl)][d3Pal]S[NMeY][dN]L[Lys(iPr)]P[dA]-NH2)
time for testosterone levels to return to normal ([1]; single dose 300 μg/kg): ≤ 24 h | time for testosterone levels to return to normal ([1]; single dose 1000 μg/kg): 72 h | plasma testosterone levels ([1]; single dose 300 or 1000 μg/kg, by 6 hours post-administration): decreased to nearly undetectable levels | recovery of testosterone levels following pump removal (testosterone levels; after four weeks of continuous subcutaneous infusion): complete within two weeks | time castration level was maintained by subsequent low doses (testosterone levels; after the high dose, 5, 15 or 50 μg/kg/day by continuous subcutaneous infusion): 21 days | time to castrate levels of testosterone (testosterone levels; continuous subcutaneous infusion, 300 or 1000 μg/kg/day for two weeks): ≤ 7 days | plasma testosterone levels ([2]; eight intravenous doses of 1 μg/kg every three hours (8 μg/kg/day)): significant decrease | testosterone levels ([2]; eight intravenous doses of 10 μg/kg every three hours (80 μg/kg/day)): castrate levels of testosterone were achieved | histamine releasing activity (histamine release): low
